In patent publication US6541480B2, “1-aryl-1,8-naphthylidin-4-one derivative as type IV phosphodiesterase inhibitor” (Suntory Limited, priority 1997, dated 2003):
Where a name gives a salt, the structure may show the parent alone.

Key:
[1] = test system: TNF-α production by LPS stimulated mouse peritoneal macrophages; test: TNF-α production inhibitory activity by LPS stimulated macrophages (ELISA); assay type: cell-based; details: LPS 10 μg/ml, 8 hours
Procedure: (1) Method of Measurement of TNF-α Production Inhibitory Activity by LPS Stimulated Macrophages
The following assay was used to evaluate the ability of the compound of the present invention to suppress TNF-α production by LPS stimulated macrophages according to Immuno pharmacol. 29, 121-127 (1995).
1) 6 to 10 week old female BALB/c mice were used, 2 ml portions of thioglycolate were intraperitoneally administered, and the abdominal cavities were washed by 10 ml of PBS after 4 days, whereby 1 to 2×10^7 peritoneal cells were obtained per mouse. These were suspended in a hemocyte solution (0.75% ammonium chloride, 17 mM tris-hydrochlorate buffer, pH7.2), centrifuged, then resuspended in an RPMI1640 medium including 10% fetal calf serum and seeded in a 96-well cell culture plate at a density of 1×10^5 cells/50 μl/well. Since these cells adhered strongly to the tissue culture plate and were positive in nonspecific esterase staining, they were used for the test as mouse peritoneal macrophages. Mouse peritoneal macrophages were precultured overnight at 37° C. in 5% CO2 for the experiment.
2) E. Coli (serum type 055:B5) derived LPS was dissolved in PBS in a concentration of 1 mg/ml, then sterilized by filtration. The test compound was dissolved in DMSO to make a 1000-fold concentration solution of the final concentration of use. 10 μl of the above LPS stock solution (final concentration 10 μg/ml) and 1 μl of the tested substance stock solution were added and mixed in 0.5 ml of RPMI1640 medium containing 10% fetal calf serum. This was added to the above cells at 50 μl/well and cultured for 8 hours. The cultured supernatant was recovered from each well and the TNF-α concentration was measured by the ELISA method (Cytoscreen® Immunoassay Kit Mouse TNF-α, BioSource International).

[2] = 28-day repeated administration toxicity in mice; assay type: in vivo; details: 10 mg/kg per day administered for 28 days to mice
[3] = test system: type IV phosphodiesterase; test: Type IV phosphodiesterase inhibiting activity (3H-cAMP hydrolysis, PDE IV fraction from U937 cells); assay type: biochemical; details: PDE IV fraction from human U937 cells, 30° C., 30 minutes
Procedure: (1) Method of Measurement of Type IV Phosphodiesterase Inhibiting Activity
The following assay was used to evaluate the ability of the compound of the present invention to suppress type IV phosphodiesterase, according to Biochemical.
1) Type IV phosphodiesterase activity fractions were prepared as follows. Human histiocytic lymphoma cell line U937 was cultured in an RPMI1640 medium containing 10% fetal calf serum to obtain 10^9 cells of U937. The cells were recovered by centrifugation and suspended in 40 ml of buffer A (20 mM bis-tris, 5 mM 2-mercaptoethanol, 2 mM benzamidine, 2 mM EDTA, 0.1 mM 4-(2-aminoethyl)benzensulfonyl hydrochloride, 50 mM sodium acetate, pH=6.5). The cells were broken by a sonication and centrifuged (4° C., 10,000G, 10 minutes) to obtain a supernatent. This was filtered by a 0.45 μm filter to obtain the soluble fraction.
The soluble fraction obtained was applied into a 1×10 cm DEAE Sepharose column equalibrated with the buffer A. 120 ml of the buffer A containing a linear gradient solution of 0.05 to 1 M sodium acetate was used to separate the phosphodiesterase and recover 24 5-ml fractions. Each of the fractions was measured for the cAMP phosphodiesterase activity.
2) The test compound was reacted at a desired concentration in a reaction mixture containing 20 mM tris-HCl (pH 7.5), 1 mM MgCl2, 100 μM EDTA, 330 μg/ml calf serum albumin, 10 μg/ml 5′-nucleotidase, 0.4 μCi ^3H-cAMP ([…] cAMP) and the type IV phosphodiesterase stored solution at 30° C. for 30 minutes. QAE-Sephadex suspended in 10 mM of hepes-Na (pH-7.0) was added to the reaction mixture which was then allowed to stand for 5 minutes, then the supernatant was obtained, QAE-Sephadex was further added, to the supernatant, and was allowed to stand for 5 minutes, then the supernatant was obtained and measured for radioactivity.

SMILES	IC50 ([1]; Peritoneal macrophage)	IC50 [3]	IC50 [1]	death [2]
O=C(Nc1c(Cl)cccc1Cl)c1cn(-c2ccc(F)cc2)c2ncccc2c1=O [Example 99, N-(2,6-Dichlorophenyl)-1-(4-fluorophenyl)-1,4-dihydro[1,8]naphthylidin-4-one-3-carboxamide]	25 nM	3.4 nM	–	no death
O=C(Nc1cccnc1)c1cn(-c2ccc(F)cc2)c2ncccc2c1=O [Example 102, 1-(4-Fluorophenyl)-N-(3-pyridyl)-1,4-dihydro[1,8]naphthylidin-4-one-3-carboxamide]	100 nM	35 nM	–	no death
O=C(Nc1ccncc1)c1cn(-c2ccc(F)cc2)c2ncccc2c1=O [Example 103, 1-(4-Fluorophenyl)-N-(4-pyridyl)-1,4-dihydro[1,8]naphthylidin-4-one-3-carboxamide]	100 nM	59 nM	–	no death
O=C(Nc1c(Cl)cncc1Cl)c1cn(-c2ccc(F)cc2)c2ncccc2c1=O [Example 106, N-(3,5-Dichloropyridin-4-yl)-1-(4-fluorophenyl)-1,4-dihydro[1,8]naphthylidin-4-one-3-carboxamide]	–	0.4 nM	10 nM	no death
O=C(NCCc1ccncc1)c1cn(-c2ccccc2)c2ncccc2c1=O [Example 119, 1-Phenyl-N-[2-(4-pyridyl)ethyl]-1,4-dihydro[1,8]naphthylidin-4-one-3-carboxamide]	–	250 nM	700 nM	–
COc1ccc(-n2cc(C(=O)Nc3ccncc3)c(=O)c3cccnc32)cc1 [Example 122, 1-(4-Methoxyphenyl)-N-(4-pyridyl)-1,4-dihydro[1,8]naphthylidin-4-one-3-carboxamide]	1 nM	58 nM	–	–
O=C(Nc1c(Cl)cncc1Cl)c1cn(-c2ccc(Cl)cc2)c2ncccc2c1=O [Example 125, 1-(4-Chlorophenyl)-N-(3,5-dichloropyridin-4-yl)-1,4-dihydro[1,8]naphthylidin-4-one-3-carboxamide]	0.5 nM	0.8 nM	–	–
O=C(Nc1ccncc1)c1cn(-c2cccc(CO)c2)c2ncccc2c1=O [Example 127, 1-(3-Hydroxymethylphenyl)-N-(4-pyridyl)-1,4-dihydro[1,8]naphthylidin-4-one-3-carboxamide]	300 nM	56 nM	–	–
O=C(Nc1ccncc1)c1cn(-c2ccncc2)c2ncccc2c1=O [Example 139, 1,N-bis-(4-Pyridyl)-1,4-dihydro[1,8]naphthylidin-4-one-3-carboxamide]	100 nM	70 nM	–	no death
O=C(Nc1c(Cl)cncc1Cl)c1cn(-c2ccncc2)c2ncccc2c1=O [Example 141, N-(3,5-Dichloropyridin-4-yl)-1-(4-pyridyl)-1,4-dihydro[1,8]naphthylidin-4-one-3-carboxamide]	1 nM	0.5 nM	–	no death

Continued, in another order:

IC50 ([1]; Peritoneal macrophage)	IC50 [3]	IC50 [1]	SMILES	death [2]
1000 nM	760 nM	–	O=C(Nc1ccncc1)c1cn(-c2ccccn2)c2ncccc2c1=O [Example 132, N-(4-Pyridyl)-1-(2-pyridyl)-1,4-dihydro[1,8]naphthylidin-4-one-3-carboxamide]	–
–	6.4 nM	4 nM	O=C(Nc1c(Cl)cncc1Cl)c1cn(-c2ccccn2)c2ncccc2c1=O [Example 133]	–
800 nM	470 nM	–	O=C(Nc1cccnc1)c1cn(-c2cccnc2)c2ncccc2c1=O [Example 134, 1,N-bis-(3-Pyridyl)-1,4-dihydro[1,8]naphthylidin-4-one-3-carboxamide]	–
500 nM	130 nM	–	O=C(Nc1ccncc1)c1cn(-c2cccnc2)c2ncccc2c1=O [Example 135, 1-(3-Pyridyl)-N-(4-pyridyl)-1,4-dihydro[1,8]naphthylidin-4-one-3-carboxamide]	–
–	0.8 nM	3 nM	O=C(Nc1c(Cl)cncc1Cl)c1cn(-c2cccnc2)c2ncccc2c1=O [Example 136, N-(3,5-Dichloropyridin-4-yl)-1-(3-pyridyl)-1,4-dihydro[1,8]naphthylidin-4-one-3-carboxamide]	–
4 nM	4.9 nM	–	O=C(Nc1c(Cl)cccc1Cl)c1cn(-c2ccncc2)c2ncccc2c1=O [Example 137, N-(2,6-Dichlorophenyl)-1-(4-pyridyl)-1,4-dihydro[1,8]naphthylidin-4-one-3-carboxamide]	–
400 nM	44 nM	–	O=C(Nc1cccnc1)c1cn(-c2ccncc2)c2ncccc2c1=O [Example 138, N-(3-Pyridyl)-1-(4-pyridyl)-1,4-dihydro[1,8]naphthylidin-4-one-3-carboxamide]	–
–	36 nM	5 nM	Cc1cnccc1NC(=O)c1cn(-c2ccncc2)c2ncccc2c1=O [Example 140, N-(3-Methylpyridin-4-yl)-1-(4-pyridyl)-1,4-dihydro[1,8]naphthylidin-4-one-3-carboxamide]	–
150 nM	140 nM	–	Nc1ccc(-n2cc(C(=O)Nc3ccncc3)c(=O)c3cccnc32)cn1 [Example 143, 1-(2-Aminopyridin-5-yl)-N-(4-pyridyl)-1,4-dihydro[1,8]naphthylidin-4-one-3-carboxamide hydrochloride]	–
700 nM	140 nM	–	O=C(Nc1ccncc1)c1cn(-c2ccc(OCc3ccccc3)nc2)c2ncccc2c1=O [Example 144, 1-(2-Benzyloxypyridin-5-yl)-N-(4-pyridyl)-1,4-dihydro[1,8]naphthylidin-4-one-3-carboxamide]	–
10 nM	1.7 nM	–	O=C(Nc1c(Cl)cncc1Cl)c1cn(-c2ccc(OCc3ccccc3)nc2)c2ncccc2c1=O [Example 146, 1-(2-Benzyloxypyridin-5-yl)-N-(3,5-dichloropyridin-4-yl)-1,4-dihydro[1,8]naphthylidin-4-one-3-carboxamide]	–
20 nM	1.1 nM	–	O=C(Nc1c(Cl)cncc1Cl)c1cn(-c2ccc(O)nc2)c2ncccc2c1=O [Example 147, N-(3,5-Dichloropyridin-4-yl)-1-(2-hydroxypyridin-5-yl)-1,4-dihydro[1,8]naphthylidin-4-one-3-carboxamide]	–
30 nM	5.9 nM	–	O=C(Nc1c(Cl)cncc1Cl)c1cn(-c2nccs2)c2ncccc2c1=O [Example 152, N-(3,5-Dichloropyridin-4-yl)-1-(2-thiazolyl)-1,4-dihydro[1,8]naphthylidin-4-one-3-carboxamide]	–
